Data as given in patent US12391686B2, “Compounds and uses thereof” (Foghorn Therapeutics Inc., priority 2019, dated 2025).

Legend:
[1] = biological target: T1, BRD9 bromodomain (Flag-BRD9 P133-K239; Swiss Prot Q9H8M2) (Homo sapiens, UniProt Q9H8M2); test: BRD9 Bromodomain TR-FRET Competition Binding Assay; details: competition with biotinylated BRD9 ligand; 90 minutes at room temperature
T1 construct: His-Flag-BRD9 (P133-K239); Swiss Prot Q9H8M2; His6 with TEV site (mgsshhhhhhenlyfq/) (N, cleaved yes); made in house
T1 sequence (Q9H8M2 133-239): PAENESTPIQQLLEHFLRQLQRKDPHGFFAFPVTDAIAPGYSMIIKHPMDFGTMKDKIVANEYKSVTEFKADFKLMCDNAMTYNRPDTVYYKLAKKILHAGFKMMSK
Method: Procedure: His-Flag-BRD9 (P133-K239; Swiss Prot Q9H8M2; SEQ ID NO:1 mgsshhhhhhenlyfq/gdykddddkgslevlfqg/[…] […]) was cloned, expressed, purified, and then treated with TEV protease. Cleaved His tag was removed by purification. The binding of a biotinylated small molecule ligand of BRD9 was assessed via the LANCE® TR-FRET platform (PerkinElmer), and the compounds were assayed for inhibitory activity against this interaction.
Results: A mixture of biotinylated-ligand and SureLight™ Allophycocyanin-Streptavidin (APC-SA, PerkinElmer AD0201) in 50 mM HEPES (pH 7.4), 50 mM NaCl, 1 mM TCEP (pH 7), 0.01% (v/v) Tween-20, 0.01% (w/v) bovine serum albumin was added to a white 384-well PerkinElmer Proxiplate Plus plate. DMSO or 3-fold serially diluted compounds were then added to the Proxiplate followed by addition of Flag-BRD9. After a 10-minute incubation at room temperature, Eu-W1024 anti-FLAG (PerkinElmer, AD0273) was added. The final reaction mixture that contained 3.75 nM biotinylated ligand, 3 nM Flag-BRD9, 7.5 nM SureLight™ Allophycocyanin-Streptavidin, and 0.2 nM Eu-W1024 anti-FLAG was incubated at room temperature for 90 minutes.
The plates were then read on a PerkinElmer Envision plate reader to determine the ratio of emission at 665 nm over 615 nm. […]

[2] = biological target: T2, Nanoluciferase-BRD9 fusion protein (3×FLAG-NLuc-BRD9) in SYO-1 cells (Homo sapiens, UniProt Q9H8M2); test: SYO1 BRD9 NanoLuc Degradation Assay; format: cell-based; details: 6 hours; SYO-1 cells expressing 3×FLAG-NLuc-BRD9; top dose 1 μM; read-out: SYO1 BRD9-NanoLuc degradation IC50
T2 construct: expressed in transfected cells; host or cells: SYO-1
T2 sequence (Q9H8M2 1-597): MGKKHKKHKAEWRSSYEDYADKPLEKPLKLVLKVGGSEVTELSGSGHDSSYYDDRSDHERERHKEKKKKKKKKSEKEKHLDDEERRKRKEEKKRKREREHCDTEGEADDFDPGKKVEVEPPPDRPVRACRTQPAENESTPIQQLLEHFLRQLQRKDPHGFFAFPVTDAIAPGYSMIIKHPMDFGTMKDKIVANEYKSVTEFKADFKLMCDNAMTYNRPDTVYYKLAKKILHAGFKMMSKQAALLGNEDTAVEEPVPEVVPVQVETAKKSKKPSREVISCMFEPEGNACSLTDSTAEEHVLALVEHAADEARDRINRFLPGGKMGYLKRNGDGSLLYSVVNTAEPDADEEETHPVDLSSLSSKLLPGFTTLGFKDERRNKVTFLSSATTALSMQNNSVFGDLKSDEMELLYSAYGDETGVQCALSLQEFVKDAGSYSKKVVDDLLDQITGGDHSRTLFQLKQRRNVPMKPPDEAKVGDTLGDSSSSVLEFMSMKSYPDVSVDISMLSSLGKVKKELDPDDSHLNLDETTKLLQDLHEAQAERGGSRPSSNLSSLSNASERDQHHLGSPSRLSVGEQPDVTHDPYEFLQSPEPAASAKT
Method in brief: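 NanoLuc signal, read by Nano-Glo luminescence after 6 h compound exposure, gives % inhibition against DMSO-treated cells (high control) and cells given 1 μM of a standard BRD9 degrader (low control). Test compounds ran as 10-point 3-fold series, top 1 μM final, in duplicate on SYO-1 cells stably expressing 3×FLAG-NLuc-BRD9.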

| Compound | IC50 [1] | DC50 [2] |
| --- | --- | --- |
| CNc1cc2c(=O)n(C)cc(-c3cc(OC)c(CN4CCC5(CC4)CN(C(=O)CCCOc4cccc6c4C(=O)N(C4CCC(=O)NC4=O)C6=O)CCO5)c(OC)c3)c2cn1 (stereo not shown) [Compound D16, 4-(4-(9-(2,6-dimethoxy-4-(2-methyl-7-(methylamino)-1-oxo-1,2-dihydro-2,6-naphthyridin-4-yl)benzyl)-1-oxa-4,9-diazaspiro[5.5]undecan-4-yl)-4-oxobutoxy)-2-(2,6-dioxopiperidin-3-yl)isoindoline-1,3-dione formic acid] | < 10 nM | < 10 nM |
| CNc1cc2c(=O)n(C)cc(-c3cc(OC)c(CN4CCN(C(=O)CCCOc5cccc6c5C(=O)N(C5CCC(=O)NC5=O)C6=O)CC4)c(OC)c3)c2cn1 (stereo not shown) [Compound D17, 4-(4-(4-(2,6-dimethoxy-4-(2-methyl-7-(methylamino)-1-oxo-1,2-dihydro-2,6-naphthyridin-4-yl)benzyl)piperazin-1-yl)-4-oxobutoxy)-2-(2,6-dioxopiperidin-3-yl)isoindoline-1,3-dione formic acid] | ≥ 10 nM | < 10 nM |
| COc1cc(-c2cn(C)c(=O)c3cnc(N(C)C)cc23)cc(OC)c1CN1CCC2(CC1)CN(C(=O)CCCOc1cccc3c1C(=O)N(C1CCC(=O)NC1=O)C3=O)CCO2 (stereo not shown) [Compound D18, 4-(4-(9-(4-(6-(dimethylamino)-2-methyl-1-oxo-1,2-dihydro-2,7-naphthyridin-4-yl)-2,6-dimethoxybenzyl)-1-oxa-4,9-diazaspiro[5.5]undecan-4-yl)-4-oxobutoxy)-2-(2,6-dioxopiperidin-3-yl)isoindoline-1,3-dione formic acid] | < 10 nM | < 10 nM |
| COc1cc(-c2cn(C)c(=O)c3cnc(N(C)C)cc23)cc(OC)c1CN1CCC2(CC1)CN(C(=O)CCCCOc1ccc3c(c1)C(=O)N(C1CCC(=O)NC1=O)C3=O)CCO2 (stereo not shown) [Compound D19, 5-((5-(9-(4-(6-(dimethylamino)-2-methyl-1-oxo-1,2-dihydro-2,7-naphthyridin-4-yl)-2,6-dimethoxybenzyl)-1-oxa-4,9-diazaspiro[5.5]undecan-4-yl)-5-oxopentyl)oxy)-2-(2,6-dioxopiperidin-3-yl)isoindoline-1,3-dione formic acid] | < 10 nM | < 10 nM |
| COc1cc(-c2cn(C)c(=O)c3cnc(N(C)C)cc23)cc(OC)c1CN1CCC(CCN2CCN(c3ccc4c(c3)C(=O)N(C3CCC(=O)NC3=O)C4=O)CC2)CC1 (stereo not shown) [Compound D20, 5-(4-(2-(1-(4-(6-(dimethylamino)-2-methyl-1-oxo-1,2-dihydro-2,7-naphthyridin-4-yl)-2,6-dimethoxybenzyl)piperidin-4-yl)ethyl)piperazin-1-yl)-2-(2,6-dioxopiperidin-3-yl)isoindoline-1,3-dione formic acid] | < 10 nM | < 10 nM |
| COc1cc(-c2cn(C)c(=O)c3cnc(N(C)C)cc23)cc(OC)c1CN(C)CCOCCN1CCN(c2ccc3c(c2)C(=O)N(C2CCC(=O)NC2=O)C3=O)CC1 (stereo not shown) [Compound D21, 5-[4-(2-[2-[([4-[6-(dimethylamino)-2-methyl-1-oxo-2,7-naphthyridin-4-yl]-2,6-dimethoxyphenyl]methyl)(methyl)amino]ethoxy]ethyl)piperazin-1-yl]-2-(2,6-dioxopiperidin-3-yl)isoindole-1,3-dione] | < 10 nM | < 10 nM |
| COc1cc(-c2cn(C)c(=O)c3cnc(N(C)CCOCCOCCNc4ccc5c(c4)C(=O)N(C4CCC(=O)NC4=O)C5=O)cc23)cc(OC)c1CN(C)C (stereo not shown) [Compound D22, 5-[10-(5-[4-[(dimethylamino)methyl]-3,5-dimethoxyphenyl]-7-methyl-8-oxo-2,7-naphthyridin-3-yl)-4,7-dioxa-1,10-diazaundecan-1-yl]-2-(2,6-dioxopiperidin-3-yl)isoindole-1,3-dione formic acid] | ≥ 10 nM | ≥ 100 nM |
| COc1cc(-c2cn(C)c(=O)c3cc(NCCOCCOCCNc4cccc5c4C(=O)N(C4CCC(=O)NC4=O)C5=O)ncc23)cc(OC)c1CN(C)C (stereo not shown) [Compound D24, 4-[[2-(2-[2-[(8-[4-[(dimethylamino)methyl]-3,5-dimethoxyphenyl]-6-methyl-5-oxo-2,6-naphthyridin-3-yl)amino]ethoxy]ethoxy)ethyl]amino]-2-(2,6-dioxopiperidin-3-yl)isoindole-1,3-dione] | ≥ 10 nM | ≥ 10 nM |
| COc1cc(-c2cn(C)c(=O)c3cc(NCCCCCOc4cccc5c4C(=O)N(C4CCC(=O)NC4=O)C5=O)ncc23)c(OC)cc1CN(C)C (stereo not shown) [Compound D25, 4-((5-((8-(4-((dimethylamino)methyl)-2,5-dimethoxyphenyl)-6-methyl-5-oxo-5,6-dihydro-2,6-naphthyridin-3-yl)amino)pentyl)oxy)-2-(2,6-dioxopiperidin-3-yl)isoindoline-1,3-dione] | ≥ 1000 nM | ≥ 100 nM |
| COc1cc(-c2cn(C)c(=O)c3cc(NCC(=O)NCCCCCOc4cccc5c4C(=O)N(C4CCC(=O)NC4=O)C5=O)ncc23)cc(OC)c1CN(C)C (stereo not shown) [Compound D26, 2-[(8-[4-[(dimethylamino)methyl]-3,5-dimethoxyphenyl]-6-methyl-5-oxo-2,6-naphthyridin-3-yl)amino]-N-(5-[[2-(2,6-dioxopiperidin-3-yl)-1,3-dioxoisoindol-4-yl]oxy]pentyl) acetamide] | ≥ 10 nM | ≥ 10 nM |
| COc1cc(-c2cn(C)c(=O)c3cnc(N(C)C)cc23)cc(OC)c1CN1CCC2(CC1)CN(C(=O)CCCCOc1cccc3c1C(=O)N(C1CCC(=O)NC1=O)C3=O)CCO2 (stereo not shown) [Compound D27, 4-((5-(9-(4-(6-(dimethylamino)-2-methyl-1-oxo-1,2-dihydro-2,7-naphthyridin-4-yl)-2,6-dimethoxybenzyl)-1-oxa-4,9-diazaspiro[5.5]undecan-4-yl)-5-oxopentyl)oxy)-2-(2,6-dioxopiperidin-3-yl)isoindoline-1,3-dione formic acid] | < 10 nM | < 10 nM |
| COc1cc(-c2cn(C)c(=O)c3cnc(N(C)C)cc23)cc(OC)c1CN1CC(S(=O)(=O)NCCN2CCN(c3ccc4c(c3)C(=O)N(C3CCC(=O)NC3=O)C4=O)CC2)C1 (stereo not shown) [Compound D28, 1-([4-[6-(dimethylamino)-2-methyl-1-oxo-2,7-naphthyridin-4-yl]-2,6-dimethoxyphenyl]methyl)-N-(2-[4-[2-(2,6-dioxopiperidin-3-yl)-1,3-dioxoisoindol-5-yl]piperazin-1-yl]ethyl)azetidine-3-sulfonamide] | < 10 nM | < 10 nM |
| CNc1cc2c(=O)n(C)cc(-c3cc(OC)c(CN4CCN(C(=O)COc5cccc6c5C(=O)N(C5CCC(=O)NC5=O)C6=O)CC4)c(OC)c3)c2cn1 (stereo not shown) [Compound D29, 4-[2-[4-([2,6-dimethoxy-4-[2-methyl-7-(methylamino)-1-oxo-2,6-naphthyridin-4-yl]phenyl]methyl)piperazin-1-yl]-2-oxoethoxy]-2-(2,6-dioxopiperidin-3-yl)isoindole-1,3-dione] | < 10 nM | < 10 nM |
| CNc1cc2c(=O)n(C)cc(-c3cc(OC)c(CN4CCC(CCN5CCN(c6ccc7c(c6)C(=O)N(C6CCC(=O)NC6=O)C7=O)CC5)CC4)c(OC)c3)c2cn1 (stereo not shown) [Compound D30, 5-(4-[2-[1-([2,6-dimethoxy-4-[2-methyl-7-(methylamino)-1-oxo-2,6-naphthyridin-4-yl]phenyl]methyl)piperidin-4-yl]ethyl]piperazin-1-yl)-2-(2,6-dioxopiperidin-3-yl)isoindole-1,3-dione formic acid] | < 10 nM | < 10 nM |
